Reference: the NIST ThermoML archive (doi:10.1021/je049894j)
± gives the expanded uncertainty stated by the source.

Conditions: Liquid

vapor or sublimation pressure (468.15 K) [kPa] | vapor or sublimation pressure (483.15 K) [kPa] | vapor or sublimation pressure (498.15 K) [kPa] | vapor or sublimation pressure (513.15 K) [kPa] | Structure (SMILES)
833 ± 26 | 1182 ± 37 | 1558 ± 48 | 2027 ± 63 | CCCCO [butan-1-ol]
1351 ± 31 | 1791 ± 39 | 2329 ± 49 | 2946 ± 60 | CCC(C)O (centres undefined) [butan-2-ol]
3286 ± 100 | – | – | – | CCCCC [pentane]
